This is an account of results in patent US9745339B2 (GRAFFINITY PHARMACEUTICALS GMBH, priority 2012, dated 2017).

The test system of assay [1] is Tocilizumab. Kind of assay: Microtiter plate chromatography of resins: binding and elution of Tocilizumab. Particulars: fraction of injected protein bound; 0.5 mg/ml IgG in PBS pH 7.3. On the procedure:
(§1) Resins were assessed in packed mode by microtiter plate chromatography. For each column, approximately 30 μl of resin were transferred to a 384-well filter plate and sealed with appropriate top fits. Columns with rProtein A SEPHAROSE 4 FF and MABSORBENT A2P HF were included as controls.
(§2) Either 3.3 cv of whole IgGs dissolved at 0.5 mg ml^−1 in PBS or undiluted host cell proteins (HCP) were injected onto columns.
(§3) Unbound protein was washed from columns with 5 cv of PBS prior to elution with 5 cv of glycine buffer at pH 2.5. […] During injection of samples, speed was reduced to 10 g and centrifugation time increased to 5-10 min. Effluent fractions were collected in 384-well plates and concentrations of protein were analyzed by Bradford assay. Protein masses mi, mft and me (see below) were calculated as the product of fraction volume and measured protein concentration.
(§4) The fraction of bound protein was calculated as the difference between the total mass of protein injected mi and the mass of protein detected in the flowthrough mft, divided by the total mass of protein injected.
(§5) The yield of protein was calculated as the mass of protein eluted me, divided by the mass of protein injected mi.
(§6) The fraction of bound protein and the yield of protein were calculated for each resin based on data for whole IgG-antibodies. In the case of host cell proteins, only the fraction of bound protein is given. Selectivity of resins was calculated from data for Bevacizumab whole IgG and host cell proteins. Due to limited experimental precision, selectivity was truncated for values beyond 10.

The subject of assay [2] is Palivizumab. Kind of assay: Microtiter plate chromatography of resins: binding and elution of Palivizumab. The conditions noted are these: fraction of injected protein bound; 0.5 mg/ml IgG in PBS pH 7.3. On the procedure: as §1, §2, §3, §4, §5, §6
The subject of assay [3] is Cetuximab. The assay can be described thus: Microtiter plate chromatography of resins: binding and elution of Cetuximab. Particulars: fraction of injected protein bound; 0.5 mg/ml IgG in PBS pH 7.3. On the procedure: as §1, §2, §3, §4, §5, §6
The test system of assay [4] is host cell proteins (HCP). The assay can be described thus: Microtiter plate chromatography of resins: binding of host cell proteins. More on the design: species or system CHO cell culture. Particulars: fraction of injected undiluted host cell proteins bound. On the procedure: Flowthrough from protein A chromatography (referred to as host cell proteins) was derived from the supernatant of antibody-producing CHO cell culture in serum-free medium. Coomassie brilliant blue dye reagent for Bradford assay was purchased from Thermo Scientific (Bonn/Germany).
as §1, §2, §3, §4, §6

Assay [5] relates to Bevacizumab. The assay can be described thus: Microtiter plate chromatography of resins: binding and elution of Bevacizumab. The conditions noted are these: fraction of bound Bevacizumab divided by fraction of bound HCP; truncated for values beyond 10. On the procedure:
as §1, §2, §3, §4, §5
(§7) The selectivity of resins was calculated as the fraction of bound Bevacizumab antibody BAb, divided by the fraction of bound host cell proteins BHCP.
as §6

The target of assay [6] is T1, Bevacizumab (Homo sapiens, UniProt P01857).
T1 construct: 0.5 mg/ml IgG in PBS pH 7.3; ligand immobilized on SEPHAR; Bevacizumab Yield; other: mass eluted (glycine pH 2.5) / mass injected; kd (dissociation constant, Langmuir isotherm); other: Bevacizumab 0.05-5 mg/ml in PBS pH 7.3, 25° C., at least 3 h; qm (maximum capacity); other: mg Bevacizumab per ml of resin; Langmuir isotherm; t0; fused on or other part: Humanized anti-VEGF-A VH domain joined N-terminally to the IGHG1 constant region (engineered, no UniProt entry)
Described as above. The conditions noted are these: for Bevacizumab Bound: fraction of injected protein bound, 0.5 mg/ml IgG in PBS pH 7.3, ligand immobilized on SEPHAROSE 4 FF; for Bevacizumab Yield: mass eluted (glycine pH 2.5) / mass injected. On the procedure:
as §1, §2, §3, §4, §5, §7, §6

In assay [7] the test system is poly-IgG from human serum (h-poly-IgG). The assay can be described thus: Microtiter plate chromatography of resins: binding and elution of human poly-IgG. Particulars: fraction of injected protein bound; 0.5 mg/ml IgG in PBS pH 7.3. On the procedure:
as §1, §2, §3, §4, §5, §6

`NCCCn1c(=O)c(=O)[nH]c2cc(C(=O)Nc3nnc(-c4ccco4)s3)ccc21` [Ligand L28, 1-(3-Amino-1-propyl)-2,3-dioxo-1,2,3,4-tetrahydroquinoxaline-6-carboxylic acid N-[5-(2-furyl)-1,3,4-thiadiazol-2-yl]amide]: the “Tocilizumab Bound” value in assay [1] was 98%. Moreover, the “Palivizumab Bound” value in assay [2] came to 58%. Also, the “Cetuximab Bound” value in assay [3] came to 89%. Moreover, the “HCP Bound” value in assay [4] was 12%. The compound also came in with a Selectivity in assay [5] of 8.3. Besides, in assay [6], the “Bevacizumab Bound” value is 100% and the “Bevacizumab Yield” value came to 95%. For the same compound, the “h-poly-IgG Bound” value in assay [7] is listed as 63%.

With `NCCCn1cnc2cc(C(=O)Nc3nnc(C4CC4)s3)ccc21` [Ligand L35, 1-(3-Amino-1-propyl)benzimidazole-5-carboxylic acid N-(2-cyclopropyl-1,3,4-thiadiazol-5-yl) amide], the “Tocilizumab Bound” value in assay [1] stood at 100%. In addition, the “Palivizumab Bound” value in assay [2] stood at 100%. Moreover, in assay [3], the “Cetuximab Bound” value stood at 100%. Besides, the “HCP Bound” value in assay [4] was 29%. In assay [5], the Selectivity was 3.4. In addition, in assay [6], the “Bevacizumab Bound” value is recorded as 100% and the “Bevacizumab Yield” value was determined as 104%. For the same compound, in assay [7], the “h-poly-IgG Bound” value was found to be 100%.

In the case of `NCCCn1cnc2cc(C(=O)Nc3nnc(-c4ccc5c(c4)OCO5)s3)ccc21` [Ligand L09, 1-(3-Amino-1-propyl)benzimidazole-5-carboxylic acid N-[2-(3,4-methylenedioxyphenyl)-1,3,4-thiadiazol-5-yl] amide], in assay [1], the “Tocilizumab Bound” value is 100%. The “Palivizumab Bound” value in assay [2] worked out at 100%. In addition, the “Cetuximab Bound” value in assay [3] is 100%. Besides, the “HCP Bound” value in assay [4] came out at 39%. Besides, the Selectivity in assay [5] was 2.6. In assay [6], the “Bevacizumab Bound” value is recorded as 100% and the “Bevacizumab Yield” value turned out to be 97%. Further, in assay [7], the “h-poly-IgG Bound” value stood at 100%.

Consider `NCCCn1cnc2cc(C(=O)Nc3nnc(-c4ccccc4)s3)ccc21` [Ligand L33, 1-(3-Amino-1-propyl)benzimidazole-5-carboxylic acid N-(2-phenyl-1,3,4-thiadiazol-5-yl) amide], for which the “Tocilizumab Bound” value in assay [1] is 100%. The “Palivizumab Bound” value in assay [2] is on record as 100%. In addition, the “Cetuximab Bound” value in assay [3] was determined as 100%. Moreover, in assay [4], the “HCP Bound” value amounted to 34%. The same compound registered a Selectivity in assay [5] of 2.9. In assay [6], the “Bevacizumab Bound” value is reported as 100% and the “Bevacizumab Yield” value is recorded as 105%. In addition, the “h-poly-IgG Bound” value in assay [7] stood at 100%.

For the compound `NCCCn1cnc2cc(C(=O)Nc3nc4ccccc4o3)ccc21` [Ligand L08, 1-(3-Amino-1-propyl)benzimidazole-5-carboxylic acid N-(benzoxazol-2-yl) amide], the “Tocilizumab Bound” value in assay [1] came out at 100%. The “Palivizumab Bound” value in assay [2] came to 91%. The “Cetuximab Bound” value in assay [3] was 100%. Also, the “HCP Bound” value in assay [4] was 39%. Further, the Selectivity in assay [5] came to 2.6. Besides, in assay [6], the “Bevacizumab Bound” value came out at 100% and the “Bevacizumab Yield” value worked out at 100%. Moreover, in assay [7], the “h-poly-IgG Bound” value is 95%.

Take `Cc1cc(NC(=O)c2ccc3c(c2)ncn3CCCN)nn1-c1ccccc1` [Ligand L11, 1-(3-Amino-1-propyl)benzimidazole-5-carboxylic acid N-(5-methyl-1-phenylpyrazol-3-yl) amide]: the “Tocilizumab Bound” value in assay [1] is reported as 96%. Moreover, in assay [2], the “Palivizumab Bound” value was found to be 61%. The “Cetuximab Bound” value in assay [3] is reported as 98%. The “HCP Bound” value in assay [4] worked out at 51%. The Selectivity in assay [5] was found to be 2.0. In addition, in assay [6], the “Bevacizumab Bound” value amounted to 100% and the “Bevacizumab Yield” value was found to be 99%. Further, the “h-poly-IgG Bound” value in assay [7] is recorded as 88%.

Regarding `NCCCOc1ccc(C(=O)Nc2nnc(-c3ccco3)s2)cc1` [Ligand L20, 4-[(1-Amino-3-propyl)oxy]benzoic acid N-[5-(2-furyl)-1,3,4-thiadiazol-2-yl] amide], in assay [1], the “Tocilizumab Bound” value amounted to 100%. For the same compound, the “Palivizumab Bound” value in assay [2] is reported as 100%. Besides, the “Cetuximab Bound” value in assay [3] stood at 100%. Also, the “HCP Bound” value in assay [4] is given as 35%. Also, the Selectivity in assay [5] is 2.9. Besides, in assay [6], the “Bevacizumab Bound” value is 100% and the “Bevacizumab Yield” value came to 100%. Also, the “h-poly-IgG Bound” value in assay [7] worked out at 100%.

As to `NCCCn1cnc2cc(C(=O)Nc3nccs3)ccc21` [Ligand L16, 1-(3-Amino-1-propyl)benzimidazole-5-carboxylic acid N-(thiazol-2-yl) amide], the “Tocilizumab Bound” value in assay [1] was 100%. For the same compound, the “Palivizumab Bound” value in assay [2] came to 87%. The “Cetuximab Bound” value in assay [3] was 100%. Moreover, the “HCP Bound” value in assay [4] stood at 37%. The same compound showed a Selectivity in assay [5] of 2.7. Besides, in assay [6], the “Bevacizumab Bound” value was found to be 100% and the “Bevacizumab Yield” value was determined as 96%. For the same compound, the “h-poly-IgG Bound” value in assay [7] is recorded as 88%.

For `NCCCn1cnc2cc(C(=O)Nc3nc(-c4ccccc4)ns3)ccc21` [Ligand L22, 1-(3-Amino-1-propyl)benzimidazole-5-carboxylic acid N-(3-phenyl-1,2,4-thiadiazol-5-yl) amide], in assay [1], the “Tocilizumab Bound” value amounted to 100%. The “Palivizumab Bound” value in assay [2] is reported as 100%. Also, the “Cetuximab Bound” value in assay [3] turned out to be 100%. For the same compound, the “HCP Bound” value in assay [4] is listed as 30%. Also, the Selectivity in assay [5] is listed as 3.3. In assay [6], the “Bevacizumab Bound” value is recorded as 100% and the “Bevacizumab Yield” value amounted to 104%. Further, the “h-poly-IgG Bound” value in assay [7] amounted to 100%.

Consider `Cc1cnc(NC(=O)c2ccc3c(c2)ncn3CCCN)s1` [Ligand L17, 1-(3-Amino-1-propyl)benzimidazole-5-carboxylic acid N-(5-methylthiazol-2-yl) amide], for which, in assay [1], the “Tocilizumab Bound” value is recorded as 100%. In assay [2], the “Palivizumab Bound” value is given as 88%. In assay [3], the “Cetuximab Bound” value was 100%. Also, the “HCP Bound” value in assay [4] amounted to 34%. The Selectivity in assay [5] came out at 2.9. Further, in assay [6], the “Bevacizumab Bound” value is listed as 100% and the “Bevacizumab Yield” value is recorded as 100%. In addition, the “h-poly-IgG Bound” value in assay [7] turned out to be 89%.

In the case of `NCCCOc1ccc(C(=O)Nc2nc(-c3ccccn3)cs2)cc1` [Ligand L38, 4-[(1-Amino-3-propyl)oxy]benzoic acid N-[4-(2-pyridyl)thiazol-2-yl] amide], in assay [1], the “Tocilizumab Bound” value came to 99%. Also, the “Palivizumab Bound” value in assay [2] came to 95%. Moreover, in assay [3], the “Cetuximab Bound” value is reported as 100%. Besides, the “HCP Bound” value in assay [4] amounted to 35%. Besides, in assay [5], the Selectivity amounted to 2.9. In assay [6], the “Bevacizumab Bound” value is 100% and the “Bevacizumab Yield” value was found to be 106%. Besides, in assay [7], the “h-poly-IgG Bound” value is given as 99%.

As for `Cc1ccc(NC(=O)c2ccc3c(c2)ncn3CCCN)nn1` [Ligand L34, 1-(3-Amino-1-propyl)benzimidazole-5-carboxylic acid N-(6-methylpyridazin-3-yl) amide], in assay [1], the “Tocilizumab Bound” value was 85%. For the same compound, the “Palivizumab Bound” value in assay [2] worked out at 78%. In addition, the “Cetuximab Bound” value in assay [3] was 100%. Further, in assay [4], the “HCP Bound” value is on record as 10%. Also, in assay [5], the Selectivity is 10.0. In assay [6], the “Bevacizumab Bound” value stood at 100% and the “Bevacizumab Yield” value came out at 104%. Further, in assay [7], the “h-poly-IgG Bound” value is on record as 78%.
